In ChEMBL document CHEMBL1201862, “PubChem BioAssay data set” (2004):
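Protocol summary: plate cells (96-well), add compound at 5 concentrations, incubate 48 h, interpolate endpoints linearly. GI50: concentration for 50% inhibition of growth.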 Activity calls are given as the source filed them. Cut-off read from the data, not from the text of the source: active = GI50 up to about 1.1 µM and inactive = higher.

Assays:
Assay in all cases: NCI tumour cell line growth inhibition, 48 h
ACHN = system: ACHN
CAKI-1 = system: CAKI-1
CCRF-CEM = system: CCRF-CEM
DU-145 = system: DU-145
EKVX = system: EKVX
HCC 2998 = system: HCC 2998
HOP-92 = system: HOP-92
HT-29 = system: HT-29
KM12 = system: KM12
M14 = system: M14
MDA-MB-231 = system: MDA-MB-231
MDA-N = system: MDA-N
NCI-H460 = system: NCI-H460
NCI/ADR-RES = system: NCI/ADR-RES
RPMI-8226 = system: RPMI-8226
SF-539 = system: SF-539
SR = system: SR
SW-620 = system: SW-620
UACC-257 = system: UACC-257
SNB-75 = system: SNB-75

Row | Compound | GI50 (ACHN) | GI50 (CAKI-1) | GI50 (CCRF-CEM) | GI50 (DU-145) | GI50 (EKVX) | GI50 (HCC 2998) | GI50 (HOP-92) | GI50 (HT-29) | GI50 (KM12) | GI50 (M14) | GI50 (MDA-MB-231) | GI50 (MDA-N) | GI50 (NCI-H460) | GI50 (NCI/ADR-RES) | GI50 (RPMI-8226) | GI50 (SF-539) | GI50 (SR) | GI50 (SW-620) | GI50 (UACC-257) | GI50 (SNB-75)
1 | Cc1ccc2c(c1C)-c1c(ccc(C)c1C)C(=O)C2=O | 0.625 µM (active) | 0.662 µM (active) | 0.238 µM (active) | 1.14 µM (inactive) | 2.13 µM (inactive) | 3.7 µM (inactive) | 0.374 µM (active) | 2.36 µM (inactive) | 0.165 µM (active) | 0.679 µM (active) | 1.62 µM (inactive) | 0.173 µM (active) | 0.966 µM (active) | 0.151 µM (active) | 0.193 µM (active) | 0.21 µM (active) | 0.107 µM (active) | 0.378 µM (active) | 1.37 µM (inactive) | –
2 | Cc1c(C)c2c(c(N)c1C#N)C(=O)N(NC(=O)c1ccccc1)C2=O | > 100 µM (inactive) | > 100 µM (inactive) | > 100 µM (inactive) | > 100 µM (inactive) | 76.7 µM (inactive) | > 100 µM (inactive) | > 100 µM (inactive) | – | > 100 µM (inactive) | > 100 µM (inactive) | > 100 µM (inactive) | > 100 µM (inactive) | > 100 µM (inactive) | > 100 µM (inactive) | > 100 µM (inactive) | > 100 µM (inactive) | > 100 µM (inactive) | > 100 µM (inactive) | > 100 µM (inactive) | > 100 µM (inactive)
3 | C/C=C(\C)C(=O)OC1CC(OC(C)=O)C2(C(=O)OC)COC3C2C1(C)C1C2(C(=O)OC)OCC1(C3O)C1(O)C3CC(C4(O)C=COC4O3)C1(C)O2 (stereo not drawn) | > 100 µM (inactive) | > 100 µM (inactive) | – | > 100 µM (inactive) | > 100 µM (inactive) | 62.5 µM (inactive) | > 100 µM (inactive) | > 100 µM (inactive) | > 100 µM (inactive) | > 100 µM (inactive) | > 100 µM (inactive) | 34.4 µM (inactive) | > 100 µM (inactive) | > 100 µM (inactive) | > 100 µM (inactive) | > 100 µM (inactive) | > 100 µM (inactive) | > 100 µM (inactive) | > 100 µM (inactive) | > 100 µM (inactive)
4 | O=[N+]([O-])c1ccc(-c2csc3nc(-c4ccccc4)nn23)cc1 | > 100 µM (inactive) | 72.8 µM (inactive) | > 100 µM (inactive) | > 100 µM (inactive) | > 100 µM (inactive) | > 100 µM (inactive) | 50.5 µM (inactive) | > 100 µM (inactive) | > 100 µM (inactive) | > 100 µM (inactive) | 44 µM (inactive) | > 100 µM (inactive) | – | > 100 µM (inactive) | > 100 µM (inactive) | – | > 100 µM (inactive) | > 100 µM (inactive) | > 100 µM (inactive) | 94.6 µM (inactive)
5 | Cc1ccc(/N=C2\SC(=NN(C)C)S\C2=N/c2ccc(C)cc2)cc1 | > 100 µM (inactive) | > 100 µM (inactive) | > 100 µM (inactive) | > 100 µM (inactive) | > 100 µM (inactive) | > 100 µM (inactive) | > 100 µM (inactive) | > 100 µM (inactive) | > 100 µM (inactive) | – | > 100 µM (inactive) | > 100 µM (inactive) | > 100 µM (inactive) | > 100 µM (inactive) | > 100 µM (inactive) | > 100 µM (inactive) | > 100 µM (inactive) | > 100 µM (inactive) | > 100 µM (inactive) | > 100 µM (inactive)
6 | CNc1ccc(C(=O)CC(O)CCC(C)C2OC(=O)CC(O)CC(=O)CC(O)CC(O)CC(O)CC(O)CC3(O)CC(O)C(C(=O)N4CCOCC4)C(CC(OC4OC(C)C(O)C(N)C4O)\C=C/C=C\C=C/C=C/C=C/C=C\C=C/C2C)O3)cc1 (stereo not drawn) | 0.19 µM (active) | 0.227 µM (active) | – | 0.527 µM (active) | – | 0.374 µM (active) | 0.281 µM (active) | 0.232 µM (active) | 0.319 µM (active) | 0.328 µM (active) | 0.236 µM (active) | 0.304 µM (active) | 0.27 µM (active) | 0.43 µM (active) | 0.259 µM (active) | 0.351 µM (active) | 0.296 µM (active) | 0.475 µM (active) | 0.185 µM (active) | 0.409 µM (active)
7 | CCCOC(=O)NC(C)C(=O)NC(CCC(=O)NC(CCCC(N)C(=O)O)C(=O)NC(C)C(=O)O)C(=O)O (stereo not drawn) | 42.9 µM (inactive) | 19.9 µM (inactive) | 19.2 µM (inactive) | 24.4 µM (inactive) | 49.3 µM (inactive) | 17.1 µM (inactive) | 29.5 µM (inactive) | 19.5 µM (inactive) | 14.4 µM (inactive) | 18.3 µM (inactive) | 19.3 µM (inactive) | 21.1 µM (inactive) | 38.7 µM (inactive) | 19.2 µM (inactive) | 12.3 µM (inactive) | 14.8 µM (inactive) | 15.6 µM (inactive) | 23 µM (inactive) | > 10 µM (inactive) | –
8 | NS(=O)(=O)c1ccc(N2C(=O)C(=O)N(c3ccccc3)C2=S)cc1 | > 100 µM (inactive) | > 100 µM (inactive) | > 100 µM (inactive) | > 100 µM (inactive) | 93.8 µM (inactive) | > 100 µM (inactive) | 23.6 µM (inactive) | > 100 µM (inactive) | > 100 µM (inactive) | – | > 100 µM (inactive) | > 100 µM (inactive) | > 100 µM (inactive) | > 100 µM (inactive) | > 100 µM (inactive) | > 100 µM (inactive) | 18.9 µM (inactive) | > 100 µM (inactive) | 37.8 µM (inactive) | 74.3 µM (inactive)
9 | OCC1CCCC1O (stereo not drawn) | > 100 µM (inactive) | > 100 µM (inactive) | > 100 µM (inactive) | > 100 µM (inactive) | – | > 100 µM (inactive) | > 100 µM (inactive) | > 100 µM (inactive) | > 100 µM (inactive) | > 100 µM (inactive) | > 100 µM (inactive) | > 100 µM (inactive) | > 100 µM (inactive) | > 100 µM (inactive) | > 100 µM (inactive) | > 100 µM (inactive) | > 100 µM (inactive) | > 100 µM (inactive) | > 100 µM (inactive) | > 100 µM (inactive)
10 | CC1(C)CCC[C@](C)([C@H]2CC[C@]3(C)[C@@H]2[C@H](O)C[C@@H]2[C@@]4(C)CC[C@H](O)C(C)(C)[C@@H]4[C@H](O)C[C@]23C)O1 | 12.1 µM (inactive) | 5.6 µM (inactive) | 3.09 µM (inactive) | 15.8 µM (inactive) | 13.6 µM (inactive) | 13.9 µM (inactive) | 13.6 µM (inactive) | 3.55 µM (inactive) | 11.1 µM (inactive) | 14.9 µM (inactive) | 17.3 µM (inactive) | 13.5 µM (inactive) | 10.1 µM (inactive) | 15.2 µM (inactive) | – | 11.7 µM (inactive) | 5.31 µM (inactive) | 13.2 µM (inactive) | 13.7 µM (inactive) | 10.7 µM (inactive)
